This passage reports IC50 results from patent US9085555B2, “Complement pathway modulators and uses thereof” (priority 2011, dated 2015).

pIC50: −log10 of the molar value.

The target of this test is Factor D (Homo sapiens (Human), UniProt P00746). Nature of the test: biochemical. The settings on record: read-out: IC50. Type of test: biochemical.
Sequence of Factor D (P00746 26-253): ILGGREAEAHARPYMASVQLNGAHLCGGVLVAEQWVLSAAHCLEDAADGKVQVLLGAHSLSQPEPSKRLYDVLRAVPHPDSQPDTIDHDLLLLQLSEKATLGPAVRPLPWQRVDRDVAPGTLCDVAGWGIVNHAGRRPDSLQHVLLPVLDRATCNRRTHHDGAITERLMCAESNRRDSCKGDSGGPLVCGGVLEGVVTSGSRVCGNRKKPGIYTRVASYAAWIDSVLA

As usually defined, the pIC50 is the IC50 on a negative log10 scale, so that one unit is a factor of ten. On to `NC(=O)n1cc(NC(=O)N2C[C@H](F)C[C@H]2C(=O)NCc2ccccc2C(=O)O)c2ccccc21` [Example 23, 2-({[(2S,4R)-1-(1-Carbamoyl-1H-indol-3-ylcarbamoyl)-4-fluoro-pyrrolidine-2-carbonyl]-amino}-methyl)-benzoic acid], for which the pIC50 was 5.73.
Regarding `NC(=O)n1cc(NC(=O)N2C[C@H](F)C[C@H]2C(=O)NCc2cccc(C(=O)O)c2)c2ccccc21` [Example 24], the negative logarithm of the IC50 (pIC50) is 5.77.
As for `CC[C@H](C)[C@H](NC(=O)[C@@H]1C[C@@H](F)CN1C(=O)Nc1cn(C(N)=O)c2ccccc12)C(=O)O` [Example 25, (2S,3S)-2-{[(2S,4R)-1-(1-Carbamoyl-1H-indol-3-ylcarbamoyl)-4-fluoro-pyrrolidine-2-carbonyl]-amino}-3-methyl-pentanoic acid], the negative logarithm of the IC50 (pIC50) is 5.17.
To `NC(=O)n1cc(NC(=O)N2C[C@@H](N)C[C@H]2C(=O)NCc2cccc(Cl)c2F)c2ccccc21` [Example 26, (2S,4S)-4-Amino-pyrrolidine-1,2-dicarboxylic acid 1-[(1-carbamoyl-1H-indol-3-yl)-amide]2-(3-chloro-2-fluoro-benzylamide)] belongs 7.60; to `NC(=O)n1cc(NC(=O)N2C[C@@H](N)C[C@H]2C(=O)Nc2ccccc2)c2ccccc21` [Example 27, (2S,4S)-4-Amino-pyrrolidine-1,2-dicarboxylic acid 1-[(1-carbamoyl-1H-indol-3-yl)-amide] 2-phenylamide], 5.08.
On to `NC(=O)n1cc(NC(=O)N2C[C@@H](N)C[C@H]2C(=O)NCc2ccccc2)c2ccccc21` [Example 28, (2S,4S)-4-Amino-pyrrolidine-1,2-dicarboxylic acid 2-benzylamide 1-[(1-carbamoyl-1H-indol-3-yl)-amide]], for which the pIC50 was 5.60.
Turning to `NC(=O)n1cc(NC(=O)N2C[C@@H](N)C[C@H]2C(=O)NCc2cccc(Cl)c2)c2ccccc21` [Example 29, (2S,4S)-4-Amino-pyrrolidine-1,2-dicarboxylic acid 1-[(1-carbamoyl-1H-indol-3-yl)-amide] 2-(3-chloro-benzylamide)], the negative-log IC50 (pIC50) is 6.23.
To `Cc1cccc(CNC(=O)[C@@H]2C[C@H](N)CN2C(=O)Nc2cn(C(N)=O)c3ccccc23)c1` [Example 30, (2S,4S)-4-Amino-pyrrolidine-1,2-dicarboxylic acid 1-[(1-carbamoyl-1H-indol-3-yl)-amide] 2-(3-methyl-benzylamide)] belongs 5.57.
For `NC(=O)n1cc(NC(=O)N2C[C@@H](N)C[C@H]2C(=O)NCc2cccc(C(F)(F)F)c2)c2ccccc21` [Example 31, (2S,4S)-4-Amino-pyrrolidine-1,2-dicarboxylic acid 1-[(1-carbamoyl-1H-indol-3-yl)-amide] 2-(3-trifluoromethyl-benzylamide)], the pIC50 was 4.92.
The result for `NC(=O)n1cc(NC(=O)N2C[C@@H](N)C[C@H]2C(=O)NCc2cccc(F)c2)c2ccccc21` [Example 32, (2S,4S)-4-Amino-pyrrolidine-1,2-dicarboxylic acid 1-[(1-carbamoyl-1H-indol-3-yl)-amide] 2-(3-fluoro-benzylamide)] reads 5.47; that for `N#Cc1cccc(CNC(=O)[C@@H]2C[C@H](N)CN2C(=O)Nc2cn(C(N)=O)c3ccccc23)c1` [Example 33, (2S,4S)-4-Amino-pyrrolidine-1,2-dicarboxylic acid 1-[(1-carbamoyl-1H-indol-3-yl)-amide] 2-(3-cyano-benzylamide)], 4.62.
`NC(=O)n1cc(NC(=O)N2C[C@@H](N)C[C@H]2C(=O)NCc2cccc(Br)c2)c2ccccc21` [Example 34, (2S,4S)-4-Amino-pyrrolidine-1,2-dicarboxylic acid 2-(3-bromo-benzylamide) 1-[(1-carbamoyl-1H-indol-3-yl)-amide]]: the pIC50 was 7.05.
To `NC(=O)n1cc(NC(=O)N2C[C@@H](N)C[C@H]2C(=O)NCc2cccc(O)c2)c2ccccc21` [Example 35, (2S,4S)-4-Amino-pyrrolidine-1,2-dicarboxylic acid 1-[(1-carbamoyl-1H-indol-3-yl)-amide] 2-(3-hydroxy-benzylamide)] belongs 5.55; to `COc1cccc(CNC(=O)[C@@H]2C[C@H](N)CN2C(=O)Nc2cn(C(N)=O)c3ccccc23)c1` [Example 36, (2S,4S)-4-Amino-pyrrolidine-1,2-dicarboxylic acid 1-[(1-carbamoyl-1H-indol-3-yl)-amide] 2-(3-methoxy-benzylamide)], 5.49; to `NC(=O)n1cc(NC(=O)N2C[C@@H](N)C[C@H]2C(=O)NCc2cccc(OC(F)(F)F)c2)c2ccccc21` [Example 37, (2S,4S)-4-Amino-pyrrolidine-1,2-dicarboxylic acid 1-[(1-carbamoyl-1H-indol-3-yl)-amide] 2-(3-trifluoromethoxy-benzylamide)], 4.66.
Take `NC(=O)n1cc(NC(=O)N2C[C@@H](N)C[C@H]2C(=O)NCc2cccc(Oc3ccccc3)c2)c2ccccc21` [Example 38, (2S,4S)-4-Amino-pyrrolidine-1,2-dicarboxylic acid 1-[(1-carbamoyl-1H-indol-3-yl)-amide] 2-(3-phenoxy-benzylamide)]: the negative-log IC50 (pIC50) is 5.20.
In the case of `NC(=O)n1cc(NC(=O)N2C[C@@H](N)C[C@H]2C(=O)NCc2cccc(-c3ccccc3)c2)c2ccccc21` [Example 39, (2S,4S)-4-Amino-pyrrolidine-1,2-dicarboxylic acid 2-[(biphenyl-3-ylmethyl)-amide] 1-[(1-carbamoyl-1H-indol-3-yl)-amide]], the negative-log IC50 (pIC50) was 5.98.
For `NC(=O)n1cc(NC(=O)N2C[C@@H](N)C[C@H]2C(=O)NCc2cccc(-n3cccc3)c2)c2ccccc21` [Example 40, (2S,4S)-4-Amino-pyrrolidine-1,2-dicarboxylic acid 1-[(1-carbamoyl-1H-indol-3-yl)-amide] 2-(3-pyrrol-1-yl-benzylamide)], the pIC50 is 4.95.
Take `NC(=O)n1cc(NC(=O)N2C[C@@H](N)C[C@H]2C(=O)NCc2cccc(-c3ccc(Cl)s3)c2)c2ccccc21` [Example 41, (2S,4S)-4-Amino-pyrrolidine-1,2-dicarboxylic acid 1-[(1-carbamoyl-1H-indol-3-yl)-amide] 2-[3-(5-chloro-thiophen-2-yl)-benzylamide]]: the pIC50 was 5.49.
In the case of `NC(=O)n1cc(NC(=O)N2C[C@@H](N)C[C@H]2C(=O)NCc2ccc(-c3ccc(Cl)s3)s2)c2ccccc21` [Example 42, (2S,4S)-4-Amino-pyrrolidine-1,2-dicarboxylic acid 1-[(1-carbamoyl-1H-indol-3-yl)-amide] 2-[(5′-chloro-[2,2′]bithiophenyl-5-ylmethyl)-amide]], the pIC50 was 5.55.
Take `Cc1ccc(CNC(=O)[C@@H]2C[C@H](N)CN2C(=O)Nc2cn(C(N)=O)c3ccccc23)cc1` [Example 43, (2S,4S)-4-Amino-pyrrolidine-1,2-dicarboxylic acid 1-[(1-carbamoyl-1H-indol-3-yl)-amide] 2-(4-methyl-benzylamide)]: the pIC50 was 5.11.
For the compound `NC(=O)n1cc(NC(=O)N2C[C@@H](N)C[C@H]2C(=O)NCc2ccc(C(F)(F)F)cc2)c2ccccc21` [Example 45, (2S,4S)-4-Amino-pyrrolidine-1,2-dicarboxylic acid 1-[(1-carbamoyl-1H-indol-3-yl)-amide] 2-(4-trifluoromethyl-benzylamide)], the negative logarithm of the IC50 (pIC50) is 4.65.
With `NC(=O)n1cc(NC(=O)N2C[C@@H](N)C[C@H]2C(=O)NCc2ccc(OC(F)(F)F)cc2)c2ccccc21` [Example 46, (2S,4S)-4-Amino-pyrrolidine-1,2-dicarboxylic acid 1-[(1-carbamoyl-1H-indol-3-yl)-amide] 2-(4-trifluoromethoxy-benzylamide)], the negative logarithm of the IC50 (pIC50) is 4.64.
To `NC(=O)n1cc(NC(=O)N2C[C@@H](N)C[C@H]2C(=O)NCc2ccc(O)cc2)c2ccccc21` [Example 47, (2S,4S)-4-Amino-pyrrolidine-1,2-dicarboxylic acid 1-[(1-carbamoyl-1H-indol-3-yl)-amide] 2-(4-hydroxy-benzylamide)] belongs 5.05; to `NC(=O)n1cc(NC(=O)N2C[C@@H](N)C[C@H]2C(=O)NCc2ccccc2O)c2ccccc21` [Example 48, (2S,4S)-4-Amino-pyrrolidine-1,2-dicarboxylic acid 1-[(1-carbamoyl-1H-indol-3-yl)-amide] 2-(2-hydroxy-benzylamide)], 5.12.
`NC(=O)n1cc(NC(=O)N2C[C@@H](N)C[C@H]2C(=O)NCc2ccccc2F)c2ccccc21` [Example 49, (2S,4S)-4-Amino-pyrrolidine-1,2-dicarboxylic acid 1-[(1-carbamoyl-1H-indol-3-yl)-amide] 2-(2-fluoro-benzylamide)]: the pIC50 is 6.05.
Regarding `NC(=O)n1cc(NC(=O)N2C[C@@H](N)C[C@H]2C(=O)NCc2ccccc2Cl)c2ccccc21` [Example 50, (2S,4S)-4-Amino-pyrrolidine-1,2-dicarboxylic acid 1-[(1-carbamoyl-1H-indol-3-yl)-amide] 2-(2-chloro-benzylamide)], the pIC50 was 4.67.
For the compound `NC(=O)n1cc(NC(=O)N2C[C@@H](N)C[C@H]2C(=O)NCc2ccccc2-c2ccccc2)c2ccccc21` [Example 51, (2S,4S)-4-Amino-pyrrolidine-1,2-dicarboxylic acid 2-[(biphenyl-2-ylmethyl)-amide] 1-[(1-carbamoyl-1H-indol-3-yl)-amide]], the negative-log IC50 (pIC50) is 5.07.
Consider `NC(=O)n1cc(NC(=O)N2C[C@@H](N)C[C@H]2C(=O)NCc2cccc(F)c2F)c2ccccc21` [Example 52, (2S,4S)-4-Amino-pyrrolidine-1,2-dicarboxylic acid 1-[(1-carbamoyl-1H-indol-3-yl)-amide] 2-(2,3-difluoro-benzylamide)], for which the pIC50 is 6.40.
On to `COc1ccc(Cl)cc1CNC(=O)[C@@H]1C[C@H](N)CN1C(=O)Nc1cn(C(N)=O)c2ccccc12` [Example 53, (2S,4S)-4-Amino-pyrrolidine-1,2-dicarboxylic acid 1-[(1-carbamoyl-1H-indol-3-yl)-amide] 2-(5-chloro-2-methoxy-benzylamide)], for which the pIC50 is 5.76.
Regarding `COc1ccc(CNC(=O)[C@@H]2C[C@H](N)CN2C(=O)Nc2cn(C(N)=O)c3ccccc23)cc1Cl` [Example 54, (2S,4S)-4-Amino-pyrrolidine-1,2-dicarboxylic acid 1-[(1-carbamoyl-1H-indol-3-yl)-amide] 2-(3-chloro-4-methoxy-benzylamide)], the negative logarithm of the IC50 (pIC50) was 5.73.
